This passage reports IC50 results from ChEMBL document CHEMBL5223189, “Discovery of Selective Aldehyde Dehydrogenase Inhibitors for the Treatment of Cancer” (ACS Med Chem Lett, 2023).

Structures are written as SMILES. pIC50: −log10 of the molar value.

Experiment [1] has as its target T1, Retinaldehyde dehydrogenase 3 (Homo sapiens, UniProt P47895).
T1 sequence (P47895 whole entry): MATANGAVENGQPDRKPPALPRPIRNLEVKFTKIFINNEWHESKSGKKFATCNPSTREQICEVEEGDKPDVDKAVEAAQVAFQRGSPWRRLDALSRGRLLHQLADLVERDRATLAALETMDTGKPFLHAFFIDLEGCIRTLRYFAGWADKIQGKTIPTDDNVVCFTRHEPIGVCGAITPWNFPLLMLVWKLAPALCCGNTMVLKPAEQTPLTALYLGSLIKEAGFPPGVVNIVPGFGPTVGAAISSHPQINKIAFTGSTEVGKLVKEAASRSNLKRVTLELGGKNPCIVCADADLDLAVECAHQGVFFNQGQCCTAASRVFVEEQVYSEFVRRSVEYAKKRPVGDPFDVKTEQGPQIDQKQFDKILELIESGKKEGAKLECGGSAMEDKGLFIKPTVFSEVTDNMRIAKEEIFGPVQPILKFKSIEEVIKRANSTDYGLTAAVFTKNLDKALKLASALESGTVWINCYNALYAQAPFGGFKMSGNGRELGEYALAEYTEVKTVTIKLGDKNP
Briefly: Inhibition of full length human ALDH1A3 using propionaldehyde as substrate preincubated for 30 mins followed by substrate addition and measured after 30 mins in presence of NAD by luminescence microplate reader analysis.

Experiment [2] concerns the target T1, Retinaldehyde dehydrogenase 3. Kind of experiment: Inhibition of human ALDH1A3 in human WM266-4 cells incubated for 60 mins using BODIPY-aminoacetaldehyde as substrate in presence of ALDEFLUOR assay buffer by Hoechst 33342 staining based cell Insight fluorescent microscopic anlaysis.
Experiment [3] addresses T2, Aldehyde dehydrogenase 1A1 (Homo sapiens, UniProt P00352).
T2 sequence (P00352 whole entry): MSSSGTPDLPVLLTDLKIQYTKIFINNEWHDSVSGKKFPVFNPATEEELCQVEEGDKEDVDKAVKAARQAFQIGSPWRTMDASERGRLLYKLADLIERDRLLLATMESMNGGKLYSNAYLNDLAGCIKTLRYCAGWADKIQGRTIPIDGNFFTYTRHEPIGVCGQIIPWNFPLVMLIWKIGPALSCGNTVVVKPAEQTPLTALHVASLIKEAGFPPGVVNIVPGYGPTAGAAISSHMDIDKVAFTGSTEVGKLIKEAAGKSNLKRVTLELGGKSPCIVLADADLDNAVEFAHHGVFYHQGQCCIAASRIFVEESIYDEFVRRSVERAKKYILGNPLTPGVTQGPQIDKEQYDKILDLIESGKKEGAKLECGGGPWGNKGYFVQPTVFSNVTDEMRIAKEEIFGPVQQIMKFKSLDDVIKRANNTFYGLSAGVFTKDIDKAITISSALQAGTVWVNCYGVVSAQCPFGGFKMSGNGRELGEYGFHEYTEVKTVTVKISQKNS
Briefly: Inhibition of full length human ALDH1A1 using propionaldehyde as substrate preincubated for 30 mins followed by substrate addition and measured after 30 mins in presence of NAD by luminescence microplate reader analysis.

In a further experiment the target is T3, Retinal dehydrogenase 2 (Homo sapiens, UniProt O94788).
T3 sequence (O94788 whole entry): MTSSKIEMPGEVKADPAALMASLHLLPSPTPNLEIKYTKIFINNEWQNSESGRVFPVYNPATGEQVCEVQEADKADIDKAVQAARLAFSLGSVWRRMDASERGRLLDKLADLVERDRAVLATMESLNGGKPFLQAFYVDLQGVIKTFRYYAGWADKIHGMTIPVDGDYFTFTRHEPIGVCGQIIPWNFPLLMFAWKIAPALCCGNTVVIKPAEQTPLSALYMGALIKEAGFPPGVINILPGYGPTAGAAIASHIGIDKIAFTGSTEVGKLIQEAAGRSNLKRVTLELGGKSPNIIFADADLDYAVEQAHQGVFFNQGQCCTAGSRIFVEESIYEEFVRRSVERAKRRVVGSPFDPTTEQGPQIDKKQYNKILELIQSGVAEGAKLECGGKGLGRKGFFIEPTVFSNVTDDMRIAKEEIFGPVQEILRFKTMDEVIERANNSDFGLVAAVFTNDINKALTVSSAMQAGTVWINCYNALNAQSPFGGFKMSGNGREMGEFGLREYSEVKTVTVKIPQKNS
Briefly: Inhibition of full length human ALDH1A2 using propionaldehyde as substrate preincubated for 30 mins followed by substrate addition and measured after 30 mins in presence of NAD by luminescence microplate reader analysis.

Experiment [4] addresses T4, Aldehyde dehydrogenase, mitochondrial (Homo sapiens, UniProt P05091).
T4 sequence (P05091 whole entry): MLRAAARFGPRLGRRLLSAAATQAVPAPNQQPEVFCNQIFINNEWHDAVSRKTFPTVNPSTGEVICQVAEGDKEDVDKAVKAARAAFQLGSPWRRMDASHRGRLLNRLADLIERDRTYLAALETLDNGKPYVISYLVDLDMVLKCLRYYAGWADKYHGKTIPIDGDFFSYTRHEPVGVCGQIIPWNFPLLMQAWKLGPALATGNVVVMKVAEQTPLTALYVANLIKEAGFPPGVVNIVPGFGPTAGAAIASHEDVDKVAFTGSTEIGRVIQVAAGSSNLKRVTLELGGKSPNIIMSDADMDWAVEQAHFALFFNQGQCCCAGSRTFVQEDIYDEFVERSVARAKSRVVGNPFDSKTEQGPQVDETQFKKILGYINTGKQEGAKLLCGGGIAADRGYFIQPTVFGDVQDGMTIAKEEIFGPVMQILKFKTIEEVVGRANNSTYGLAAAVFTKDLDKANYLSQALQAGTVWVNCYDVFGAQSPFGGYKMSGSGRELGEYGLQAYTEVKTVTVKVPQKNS
Briefly: Inhibition of full length human ALDH2 using propionaldehyde as substrate preincubated for 30 mins followed by substrate addition and measured after 30 mins in presence of NAD by luminescence microplate reader analysis.

Regarding `O=C1CCc2cc(OCCN3CCC[C@@H]3c3cccc(F)c3)ccc2N1`, the pIC50 in experiment [1] is over 7.00; in experiment [2] it was over 7.00; in experiment [3], at most 4.00; at Retinal dehydrogenase 2, 7.00; in experiment [4], at most 4.00.

Consider `CN(C)c1nc(-c2cccc(F)c2)c(C(=O)Nc2ccc3c(c2)CCC(=O)N3)s1`, for which the pIC50 is over 7.00 in experiment [1]; over 7.00 in experiment [2]; at most 4.00 in experiment [3]; 6.00 at Retinal dehydrogenase 2; at most 4.00 in experiment [4].

Take `O=C1CCc2cc(NC(=O)c3scnc3-c3cccc(F)c3)ccc2N1`: the pIC50 in experiment [1] was over 7.00; in experiment [2] it was over 7.00; in experiment [3], at most 4.00; at Retinal dehydrogenase 2, 6.00; in experiment [4], at most 4.00.

With `O=C1CCc2cc(NC(=O)c3sc(N4CC(O)C4)nc3-c3cccc(F)c3)ccc2N1`, the pIC50 is over 7.00 in experiment [1]; over 7.00 in experiment [2]; at most 4.00 in experiment [3]; at most 4.00 on Retinal dehydrogenase 2; at most 4.00 in experiment [4].

With `O=C1CCc2cc(OCCN3CCCC3c3cccc(F)c3)ccc2N1` (stereo not given), the pIC50 in experiment [1] was over 7.00; in experiment [2], over 7.00; in experiment [3], at most 4.00; at Retinal dehydrogenase 2 it was 7.00; in experiment [4], at most 4.00.

In the case of `O=C1CCc2cc(NC(=O)c3sc(N4CCOCC4)nc3-c3cccc(F)c3)ccc2N1`, the pIC50 is over 7.00 in experiment [1]; over 7.00 in experiment [2]; at most 4.00 in experiment [3]; at most 4.00 on Retinal dehydrogenase 2; at most 4.00 in experiment [4].

`O=C1CCc2cc(NC(=O)c3sc(N4CCNCC4)nc3-c3cccc(F)c3)ccc2N1`: the pIC50 in experiment [1] was over 7.00; in experiment [2], over 7.00; in experiment [3] it was at most 4.00; on Retinal dehydrogenase 2, 5.00; in experiment [4], at most 4.00.

For `O=C1CCc2cc(NC(=O)c3scnc3-c3ccccc3F)ccc2N1`, the pIC50 was over 7.00 in experiment [1]; over 7.00 in experiment [2]; at most 4.00 in experiment [3]; 6.00 at Retinal dehydrogenase 2; at most 4.00 in experiment [4].
